Series [1] can be described thus: Toxicity against brine shrimp assessed as mortality at 25 ppm after 4 hrs. In kind it is organism-based. The note with it: artemia, in vivo; read-out: Activity.
Series [2] is described as follows: Toxicity against brine shrimp assessed as mortality at 25 ppm after 6 hrs. Type of series: organism-based. As to conditions: artemia, in vivo; read-out: Activity; call rule not given here.
Series [3] in a line: Toxicity against brine shrimp assessed as mortality at 25 ppm after 8 hrs. The note with it: artemia, in vivo; read-out: Activity. Type of series: organism-based.
Series [4] can be described thus: Toxicity against brine shrimp assessed as mortality at 25 ppm after 24 hrs. In kind it is organism-based. As to conditions: artemia, in vivo; read-out: Activity.
The subject of series [5] is Artemia. Briefly: Toxicity against brine shrimp assessed as mortality at 25 ppm. Type of series: organism-based. The note with it: in vivo.
The subject of series [6] is Euphorbia esula. Briefly: Phytotoxicity against Euphorbia esula assessed as necrotic lesions at 5 ug by nicked leaf assay. Type of series: functional.

As to `CC(=O)c1nccc2c1[nH]c1ccccc12`, the mortality at 4 h, 25 ppm in series [1] came out at 14%. The mortality at 6 h, 25 ppm in series [2] was found to be 21%. Moreover, in series [3], the mortality at 8 h, 25 ppm turned out to be 43%. Further, the mortality at 24 h, 25 ppm in series [4] turned out to be 100%.
For the molecule `NC(=O)Cc1ccccc1`, the Activity result in series [5] was “Not Active”.
On to `Cc1cccc2c1[nH]c1ccccc12`, for which the mortality at 4 h, 25 ppm in series [1] was found to be 82%. For the same molecule, the mortality at 6 h, 25 ppm in series [2] amounted to 100%.
For `CC(=O)/C=C/c1c[nH]c2ccccc12`, the mortality at 4 h, 25 ppm in series [1] worked out at 0%. The mortality at 6 h, 25 ppm in series [2] turned out to be 0%. The mortality at 8 h, 25 ppm in series [3] was 8%. In addition, the mortality at 24 h, 25 ppm in series [4] was found to be 39%.
Turning to `CC(=O)/C=C/Cc1c[nH]c2ccccc12`, in series [1], the mortality at 4 h, 25 ppm was 0%. The mortality at 6 h, 25 ppm in series [2] was 0%. Besides, the mortality at 8 h, 25 ppm in series [3] was found to be 27%. Further, the mortality at 24 h, 25 ppm in series [4] was 91%. Further, the Activity in series [6] worked out at 2 mm.
As for `CC(=O)/C=C/c1ccc(C)c(C)c1C`, the mortality at 4 h, 25 ppm in series [1] was 0%. The mortality at 6 h, 25 ppm in series [2] is 50%. The mortality at 8 h, 25 ppm in series [3] was determined as 90%. The mortality at 24 h, 25 ppm in series [4] came to 100%.
`CC(=O)/C=C/C(C)=C(\C)c1c[nH]c2ccccc12`: the mortality at 4 h, 25 ppm in series [1] came out at 20%. In addition, in series [2], the mortality at 6 h, 25 ppm is 20%. In addition, in series [3], the mortality at 8 h, 25 ppm turned out to be 20%. For the same molecule, in series [4], the mortality at 24 h, 25 ppm is 70%.
Take `O=C(CO)c1c[nH]c2ccccc12`: the Activity result in series [5] was “Not Active”.
